Measurements: patent US20260262643A1, “HERBICIDAL BENZOXAZINES” (FMC CORPORATION, priority 2022, published 2026)

Columns and labels:
barnyardgrass [1] = assay: Test C preemergence; format: in vivo, Echinochloa crusgalli; conditions: 0 to 100 scale (0 no effect, 100 complete control); for Plant response rating, Barnyardgrass: Preemergence, visual rating after 10 days
Source text: (§1) Seeds of plant species selected from barnyardgrass (Echinochloa crusgalli), blackgrass (Alopecurus myosuroides), corn (Zea mays), foxtail, giant (giant foxtail, Setaria faberi), green foxtail (Setaria viridis), goosegrass (Eleusine indica), kochia (Bassia scoparia), oat, wild (wild oat, Avena fatua), pigweed, palmer (palmer amaranth, palmer pigweed, Amaranthus palmeri), Pigweed, Redroot (redroot pigweed, Amaranthus retroflexus), ragweed (common ragweed, Ambrosia artemisiifolia), ryegrass, Italian ([…] ryegrass, Lolium multiflorum), soybean (Glycine max), and wheat (Triticum aestivum) were planted into a blend of loam soil and sand and treated preemergence with a directed soil spray using test chemicals formulated in a non-phytotoxic solvent mixture which included a surfactant. At the same time, plants selected from these crops and weed species and also galium (catchweed bedstraw, Galium aparine) and horseweed (Erigeron canadensis) were planted in pots containing the same blend of loam soil and sand and treated with postemergence applications of test chemicals formulated in the same manner. Plants ranged in height from 2 to 10 cm and were in the one- to two-leaf stage for the postemergence treatment. Treated plants and untreated controls were maintained in a greenhouse for 10 days, after which time all treated plants were compared to untreated controls and visually evaluated for injury. Plant response ratings, summarized in Table C, are based on a 0 to 100 scale where 0 is no effect and 100 is complete control. A dash (-) response means no test result.

blackgrass [2] = assay: Test C preemergence; format: in vivo, Alopecurus myosuroides; conditions: 0 to 100 scale (0 no effect, 100 complete control); for Plant response rating, Blackgrass: Preemergence, visual rating after 10 days
Source text: as §1

green foxtail [3] = assay: Test C preemergence; format: in vivo, Setaria viridis; conditions: 0 to 100 scale (0 no effect, 100 complete control); for Plant response rating, Foxtail, Green: Preemergence, visual rating after 10 days
Source text: as §1

kochia [4] = assay: Test C preemergence; format: in vivo, Bassia scoparia; conditions: 0 to 100 scale (0 no effect, 100 complete control); for Plant response rating, Kochia: Preemergence, visual rating after 10 days
Source text: as §1

pigweed, palmer [5] = assay: Test C preemergence; format: in vivo, Amaranthus palmeri; conditions: 0 to 100 scale (0 no effect, 100 complete control); for Plant response rating, Pigweed, Palmer: Preemergence, visual rating after 10 days
Source text: as §1

ragweed [6] = assay: Test C preemergence; format: in vivo, Ambrosia artemisiifolia; conditions: 0 to 100 scale (0 no effect, 100 complete control); for Plant response rating, Ragweed: Preemergence, visual rating after 10 days
Source text: as §1

ryegrass, Italian [7] = assay: Test C preemergence; format: in vivo, Lolium multiflorum; conditions: 0 to 100 scale (0 no effect, 100 complete control); for Plant response rating, Ryegrass, Italian: Preemergence, visual rating after 10 days
Source text: as §1

barnyardgrass [8] = assay: Test C postemergence; format: in vivo, Echinochloa crusgalli
Source text: as §1

blackgrass [9] = assay: Test C postemergence; format: in vivo, Alopecurus myosuroides; conditions: 10 days
Source text: as §1

green foxtail [10] = assay: Test C postemergence; format: in vivo, Setaria viridis; conditions: Postemergence, 1000 g ai/ha, 10 days, visual 0 to 100 scale (0 no effect, 100 complete control)
Source text: as §1

kochia [11] = assay: Test C postemergence; format: in vivo, Bassia scoparia; conditions: 10 days
Source text: as §1

pigweed, palmer [12] = assay: Test C postemergence; format: in vivo, Amaranthus palmeri; conditions: 10 days
Source text: as §1

ragweed [13] = assay: Test C postemergence; format: in vivo, Ambrosia artemisiifolia; conditions: 10 days
Source text: as §1

ryegrass, Italian [14] = assay: Test C postemergence; format: in vivo, Lolium multiflorum; conditions: 10 days
Source text: as §1

horseweed = assay: Test C postemergence; format: in vivo, Erigeron canadensis; conditions: 10 days
Source text: as §1

galium = assay: Test C postemergence; format: in vivo, Galium aparine; conditions: 10 days
Source text: as §1

corn [15] = assay: Test C preemergence; format: in vivo, Zea mays; conditions: 0 to 100 scale (0 no effect, 100 complete control)
Source text: as §1

oat, wild [16] = assay: Test C preemergence; format: in vivo, Avena fatua; conditions: 0 to 100 scale (0 no effect, 100 complete control)
Source text: as §1

soybean [17] = assay: Test C preemergence; format: in vivo, Glycine max; conditions: 0 to 100 scale (0 no effect, 100 complete control)
Source text: as §1

wheat [18] = assay: Test C preemergence; format: in vivo, Triticum aestivum; conditions: 0 to 100 scale (0 no effect, 100 complete control)
Source text: as §1

corn [19] = assay: Test C postemergence; format: in vivo, Zea mays; conditions: 10 days
Source text: as §1

oat, wild [20] = assay: Test C postemergence; format: in vivo, Avena fatua; conditions: 10 days
Source text: as §1

soybean [21] = assay: Test C postemergence; format: in vivo, Glycine max; conditions: 10 days
Source text: as §1

wheat [22] = assay: Test C postemergence; format: in vivo, Triticum aestivum; conditions: 10 days
Source text: as §1

[23] = Postemergence, 1000 g ai/ha, 0 to 100 scale, 0 no effect, 100 complete control
[24] = Postemergence, 1000 g ai/ha, visual 0 to 100 scale (0 no effect, 100 complete control)
[25] = Test C, preemergence, 125 g ai/ha
[26] = Preemergence, 500 g ai/ha, visual rating after 10 days
[27] = 125 g ai/ha, postemergence, 0 to 100 scale, 0 no effect, 100 complete control
[28] = Postemergence, 500 g ai/ha, visual 0 to 100 scale (0 no effect, 100 complete control)

C[C@H]1CN(C(=O)c2cccc(-n3cccc3)c2)c2cccc(Cl)c2O1 [Compound 222]
40: Plant response rating, Foxtail, Green (green foxtail [10])
100: Plant response rating, Foxtail, Green (green foxtail [3]; 1000 g ai/ha)
50: Plant response rating, Barnyardgrass (barnyardgrass [1]; 1000 g ai/ha) | Plant response rating, Pigweed, Palmer (pigweed, palmer [5]; 1000 g ai/ha) | Plant response rating, Blackgrass (blackgrass [9]; [24]) | Plant response rating, Ryegrass, Italian (ryegrass, Italian [14]; [24])
20: Plant response rating, Kochia (kochia [4]; 1000 g ai/ha) | Plant response rating, Barnyardgrass (barnyardgrass [8]; [23])
60: Plant response rating, Kochia (kochia [11]; [24]) | Plant response rating, Pigweed, Palmer (pigweed, palmer [12]; [24])
0: Plant response rating, Ragweed (ragweed [6]; 1000 g ai/ha) | Plant response rating, Ragweed (ragweed [13]; [24]) | Plant response rating, Horseweed (horseweed; [24])
70: Plant response rating, Blackgrass (blackgrass [2]; 1000 g ai/ha) | Plant response rating, Ryegrass, Italian (ryegrass, Italian [7]; 1000 g ai/ha)

Cc1csc(-c2cccc(C(=O)N3C[C@H](C)Oc4c(C)cccc43)c2)c1 [Compound 245]
20: Plant response rating, Barnyardgrass (barnyardgrass [1]; 1000 g ai/ha) | Plant response rating, Pigweed, Palmer (pigweed, palmer [5]; 1000 g ai/ha)
0: Plant response rating, Blackgrass (blackgrass [2]; 1000 g ai/ha) | Plant response rating, Kochia (kochia [4]; 1000 g ai/ha) | Plant response rating, Barnyardgrass (barnyardgrass [8]; [23]) | Plant response rating, Blackgrass (blackgrass [9]; [24]) | Plant response rating, Foxtail, Green (green foxtail [10]) | Plant response rating, Kochia (kochia [11]; [24]) | Plant response rating, Pigweed, Palmer (pigweed, palmer [12]; [24]) | Plant response rating, Ryegrass, Italian (ryegrass, Italian [14]; [24]) | Plant response rating, Galium (galium; [24])
30: Plant response rating, Foxtail, Green (green foxtail [3]; 1000 g ai/ha) | Plant response rating, Horseweed (horseweed; [24])
10: Plant response rating, Ragweed (ragweed [13]; [24])
60: Plant response rating, Ryegrass, Italian (ryegrass, Italian [7]; 1000 g ai/ha)

Cc1cc(-c2cccc(C(=O)N3C[C@H](C)Oc4c(C)cccc43)c2)cs1 [Compound 246]
0: Plant response rating, Barnyardgrass (barnyardgrass [1]; 1000 g ai/ha) | Plant response rating, Blackgrass (blackgrass [2]; 1000 g ai/ha) | Plant response rating, Foxtail, Green (green foxtail [3]; 1000 g ai/ha) | Plant response rating, Kochia (kochia [4]; 1000 g ai/ha) | Plant response rating, Pigweed, Palmer (pigweed, palmer [5]; 1000 g ai/ha) | Plant response rating, Barnyardgrass (barnyardgrass [8]; [23]) | Plant response rating, Blackgrass (blackgrass [9]; [24]) | Plant response rating, Foxtail, Green (green foxtail [10]) | Plant response rating, Pigweed, Palmer (pigweed, palmer [12]; [24]) | Plant response rating, Ryegrass, Italian (ryegrass, Italian [14]; [24]) | Plant response rating, Galium (galium; [24])
30: Plant response rating, Ryegrass, Italian (ryegrass, Italian [7]; 1000 g ai/ha) | Plant response rating, Ragweed (ragweed [13]; [24]) | Plant response rating, Horseweed (horseweed; [24])
20: Plant response rating, Kochia (kochia [11]; [24])

Cc1cccc2c1O[C@@H](C)CN2C(=O)c1cccc(-n2cnc(N(C)C)n2)c1 [Compound 226]
0: Plant response rating, Corn (corn [15]; [26]) | Corn plant response rating (corn [15]; [25]) | Wheat plant response rating (wheat [18]; [25])
20: Plant response rating, Ragweed (ragweed [6]; 500 g ai/ha) | Ragweed plant response rating (ragweed [6]; [25]) | Soybean plant response rating (soybean [17]; [25]) | Plant response rating, Corn (corn [19]; [27])
90: Plant response rating, Barnyardgrass (barnyardgrass [1]; 500 g ai/ha) | Plant response rating, Kochia (kochia [4]; 500 g ai/ha) | Plant response rating, Pigweed, Palmer (pigweed, palmer [5]; 500 g ai/ha) | Plant response rating, Blackgrass (blackgrass [9]; [28]) | Plant response rating, Ryegrass, Italian (ryegrass, Italian [14]; [28])
10: Plant response rating, Wheat (wheat [18]; [26]) | Plant response rating, Oat, Wild (oat, wild [20]; [27]) | Plant response rating, Wheat (wheat [22]; [27]) | Plant response rating, Horseweed (horseweed; [27])
30: Blackgrass plant response rating (blackgrass [2]; [25]) | Plant response rating, Soybean (soybean [17]; [26]) | Plant response rating, Ragweed (ragweed [13]; [27]) | Plant response rating, Wheat (wheat [22]; [28]) | Plant response rating, Horseweed (horseweed; [28])
60: Plant response rating, Blackgrass (blackgrass [2]; 500 g ai/ha) | Plant response rating, Oat, Wild (oat, wild [16]; [26]) | Plant response rating, Blackgrass (blackgrass [9]; [27]) | Plant response rating, Corn (corn [19]; [28]) | Plant response rating, Oat, Wild (oat, wild [20]; [28]) | Plant response rating, Ragweed (ragweed [13]; [28])
40: Oat, Wild plant response rating (oat, wild [16]; [25]) | Plant response rating, Pigweed, Palmer (pigweed, palmer [12]; [27])
80: Plant response rating, Barnyardgrass (barnyardgrass [8]; Postemergence, 500 g ai/ha, 10 days, visual 0 to 100 scale (0 no effect, 100 complete control)) | Plant response rating, Kochia (kochia [11]; [28]) | Plant response rating, Pigweed, Palmer (pigweed, palmer [12]; [28]) | Plant response rating, Galium (galium; [27])
70: Plant response rating, Ryegrass, Italian (ryegrass, Italian [7]; 500 g ai/ha) | Ryegrass, Italian plant response rating (ryegrass, Italian [7]; [25]) | Plant response rating, Kochia (kochia [11]; [27])
100: Plant response rating, Foxtail, Green (green foxtail [3]; 500 g ai/ha) | Foxtail, Green plant response rating (green foxtail [3]; [25]) | Plant response rating, Soybean (soybean [21]; [27]) | Plant response rating, Soybean (soybean [21]; [28]) | Plant response rating, Galium (galium; [28])
50: Barnyardgrass plant response rating (barnyardgrass [1]; [25]) | Kochia plant response rating (kochia [4]; [25]) | Pigweed, Palmer plant response rating (pigweed, palmer [5]; [25]) | Plant response rating, Barnyardgrass (barnyardgrass [8]; 125 g ai/ha, postemergence, 10 days, 0 to 100 scale, 0 no effect, 100 complete control) | Plant response rating, Ryegrass, Italian (ryegrass, Italian [14]; [27])
